Each structure is given as a SMILES string.

The subject of one assay is cynomolgus monkeys. Description: Evaluation of wake-promoting effects in cynomolgus monkeys (EEG/EMG/EOG). Format: in vivo, cynomolgus monkey. Particulars: s.c., at ZT12, 4 h after administration. How it is done:
The wake-promoting effects were evaluated by measuring the electroencephalogram (EEG), electromyogram (EMG) and electrooculogram (EOG) in cynomolgus monkeys. Under isoflurane anesthesia (1-5%, Pfizer Japan Inc., Tokyo, Japan), male cynomolgus monkeys (2-3 years old, Hamri Co., Ltd., Ibaraki, Japan) were surgically implanted with radio-telemetry transmitters (TL10M3-D70-EEE, Data Sciences International Inc., MN, USA). EEG leads were stereotaxically positioned at the parietal area and secured to the cranium with stainless-steel screws in contact with the dura. […] Bilateral EMG leads were implanted into the back cervical muscles. After the surgery, each monkey was given penicillin (100,000 units/head, i.m., Meiji Seika Pharma Co., Ltd., Tokyo, Japan), buprenorphine (0.02 mg/kg, i.m., Otsuka Pharmaceutical Co., Ltd., Tokyo, Japan) and prednisolone (1 mg/kg, s.c., Kyoritsu Seiyaku Co., Ltd., Tokyo, Japan) daily for one week. After at least a 1-month recovery period in home cages, the monkeys were habituated to the recording chamber (an acrylic cage 60W×55D×75H (cm)) located in a soundproof, electrically shielded room. After confirming that the monkeys slept sufficiently in the experimental room, the cortical EEG, EMG and EOG signals were recorded using Dataquest ART software (Data Sciences International Inc., MN, USA). The signals were semi automatically scored in 20 sec epochs by a sleep scoring system (SleepSign, Kissei Comtec Co., Ltd., Nagano, Japan). This preliminary scoring was visually inspected and corrected if necessary. Test compound (0.1, 0.3, 1 or 10 mg/kg, Table 4) dissolved in a mixed solution containing 5% DMSO, 5% Cremophor EL, 20% PEG400 and 70% soluplus (1% (w/v)), or vehicle (i.e., a mixed solution containing 5% DMSO, 5% Cremophor EL, 20% PEG400 and 70% soluplus (1% (w/v))) was administered subcutaneously (s.c.) to the cynomolgus monkeys at ZT12 in a volume of 0.5 mL/kg in a pre-post design. The EEG, EMG and EOG recordings were performed for 4 h after the compound administration. The time spent in wakefulness for 4 h after administration (% of vehicle treatment) was calculated by using SleepSign.

The target of assay [1] is T1, human orexin type 2 receptor (Homo sapiens, UniProt O43614).
T1 construct: expressed in transfected cells
T1 sequence (O43614 1-444): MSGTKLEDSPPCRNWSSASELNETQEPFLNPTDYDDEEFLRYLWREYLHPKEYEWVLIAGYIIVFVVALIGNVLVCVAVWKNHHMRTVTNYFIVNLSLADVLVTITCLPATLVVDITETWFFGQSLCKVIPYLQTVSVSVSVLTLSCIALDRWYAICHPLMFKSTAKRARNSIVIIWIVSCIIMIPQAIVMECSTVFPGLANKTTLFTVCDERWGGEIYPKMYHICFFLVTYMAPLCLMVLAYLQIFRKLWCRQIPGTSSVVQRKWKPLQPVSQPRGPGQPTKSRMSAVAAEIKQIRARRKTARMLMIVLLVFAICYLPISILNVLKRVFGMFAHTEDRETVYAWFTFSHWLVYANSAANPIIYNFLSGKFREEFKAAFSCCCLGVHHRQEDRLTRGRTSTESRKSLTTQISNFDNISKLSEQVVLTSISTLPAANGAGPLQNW
The experiment in a line: Measurement of orexin type 2 receptor agonist activity (calcium fluorescence, CHO cells forcibly expressing human OX2 receptor). Format: cell-based. Particulars: compound at 3 μM, DMSO = 0%, orexin A (human) 10 nM = 100%. The method in brief: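 Agonism measured as Fluo-4 calcium fluorescence in CHO-K1 cells stably expressing human OX2 receptor, loaded 30 min at 37° C then 30 min at room temperature with probenecid. Signal recorded about 2 min 40 sec after compound; activity (%) normalised to DMSO (0%) and 10 nM human orexin A (100%).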

Another assay has as its system SD rats. The experiment in a line: Evaluation of wake-promoting effects in SD rats (EEG/EMG). Particulars: s.c., at ZT5, 3 hr after administration. Format: in vivo, rat. How it is done: The wake-promoting effects were evaluated by measuring the electroencephalogram (EEG) and electromyogram (EMG) in SD rats (Crl:CD(SD), CHARLES RIVER LABORATORIES JAPAN, Kanagawa, Japan.) using chronic experiment telemetry automatic measurement system (PhysioTel® and PONEMAH™, Data Sciences International Inc., Minnesota, U.S.A.). Under pentobarbital sodium anesthesia (50 mg/kg, intraperitoneal, Somnopentyl®, Kyoritsu Seiyaku, Tokyo, Japan), […] male SD rats were surgically implanted with a transmitter. Bilateral EEG leads were positioned at the parietal area in contact with the dura and fixed to the cranium with dental cement. Bilateral EMG leads were fixed to the back cervical muscles. The transmitter was implanted under the skin of the back, and the head skin was sutured. After recovery for at least 1 week, the cortical EEG and EMG signals in SD rats were recorded using a high-end data acquisition and real-time analysis system (PONEMAH™). The signals were automatically scored in 4 sec epochs by a sleep scoring system (SleepSign®, Kissei Comtec Co., Ltd.). Test compound (1 or 10 mg/kg, Table 3) dissolved in a mixed solution containing 10% DMSO, 10% Cremophor EL, 20% PEG400 and 60% H2O, or vehicle (i.e., a mixed solution containing 10% DMSO, 10% Cremophor EL, 20% PEG400 and 60% H2O) was administered subcutaneously (s.c.) to the SD rats at zeitgeber time (ZT) 5 (when the start time of the light cycle was ZT0) in a volume of 5 mL/kg. The EEG and EMG recordings were performed for 3 hr after the compound administration. The time spent in wakefulness for 3 hr after administration (% of vehicle treatment) was calculated by using SleepSign.

For `CCS(=O)(=O)NC1CCc2ccc(C)c(=O)n2C1COC1CCC(C2CC2)CC1` [Example 112, rel-N-[(3S,4R)-4-({[(1s,4S)-4-cyclopropylcyclohexyl]oxy}methyl)-7-methyl-6-oxo-1,3,4,6-tetrahydro-2H-quinolizin-3-yl]ethanesulfonamide], in the assay with cynomolgus monkeys (0.1 mg/kg), the “Wakefulness time (% of vehicle treatment) (Mean, n = 2)” value is on record as 671.65 % of vehicle treatment. For the same molecule, the “OX2R agonist activity (3 μM, %)” value in assay [1] is recorded as 94%.
On to `CC#CC1CCC(OCC2C(NS(C)(=O)=O)CCc3ccc(C)c(=O)n32)CC1` [Example 146, rel-N-[(3S,4R)-7-methyl-6-oxo-4-({[(1s,4S)-4-(prop-1-yn-1-yl)cyclohexyl]oxy}methyl)-1,3,4,6-tetrahydro-2H-quinolizin-3-yl]methanesulfonamide], for which the “Wakefulness time (% of vehicle treatment) (Mean, n = 2)” value in the assay with SD rats (10 mg/kg) was 166.75 % of vehicle treatment. For the same molecule, the “OX2R agonist activity (3 μM, %)” value in assay [1] was determined as 104%.
Take `CC#CC1CCC(OCC2C(NS(=O)(=O)C3CC3)CCc3ccc(C)c(=O)n32)CC1` [Example 148, rel-N-[(3S,4R)-7-methyl-6-oxo-4-({[(1s,4S)-4-(prop-1-yn-1-yl)cyclohexyl]oxy}methyl)-1,3,4,6-tetrahydro-2H-quinolizin-3-yl]cyclopropanesulfonamide]: in the assay on cynomolgus monkeys (1 mg/kg), the “Wakefulness time (% of vehicle treatment) (Mean, n = 2)” value was 324.87 % of vehicle treatment. In addition, the “OX2R agonist activity (3 μM, %)” value in assay [1] is 97%.
Regarding `CCCC1CCC(OCC2C(NS(=O)(=O)C3CC3)CCc3ccc(C)c(=O)n32)CC1` [Example 78, rel-N-[(3S,4R)-7-methyl-6-oxo-4-({[(1r,4S)-4-propylcyclohexyl]oxy}methyl)-1,3,4,6-tetrahydro-2H-quinolizin-3-yl]cyclopropanesulfonamide], the “Wakefulness time (% of vehicle treatment) (Mean, n = 2)” value with SD rats (1 mg/kg) is reported as 130.53 % of vehicle treatment. The “OX2R agonist activity (3 μM, %)” value in assay [1] is 88%.
On to `CCOC1CCC(OCC2C(NS(C)(=O)=O)CCc3ccc(C)c(=O)n32)CC1` [Example 145, rel-N-[(3S,4R)-4-({[(1s,4S)-4-ethoxycyclohexyl]oxy}methyl)-7-methyl-6-oxo-1,3,4,6-tetrahydro-2H-quinolizin-3-yl]methanesulfonamide], for which the “Wakefulness time (% of vehicle treatment) (Mean, n = 2)” value in the assay on cynomolgus monkeys (10 mg/kg) is reported as 277.67 % of vehicle treatment. In addition, the “OX2R agonist activity (3 μM, %)” value in assay [1] is 96%.
For `Cc1ccc2n(c1=O)C(COC1CCC(c3ccccc3)CC1)C(NS(C)(=O)=O)CC2` [Example 6, rel-N-[(3S,4R)-7-methyl-6-oxo-4-({[(1s,4S)-4-phenylcyclohexyl]oxy}methyl)-1,3,4,6-tetrahydro-2H-quinolizin-3-yl]methanesulfonamide], the “Wakefulness time (% of vehicle treatment) (Mean, n = 2)” value with cynomolgus monkeys (0.3 mg/kg) is recorded as 352.87 % of vehicle treatment. Besides, in assay [1], the “OX2R agonist activity (3 μM, %)” value turned out to be 92%.
`Cc1ccc2n(c1=O)C(COC1CCC(C3CC3)CC1)C(NS(C)(=O)=O)CC2` [Example 111, rel-N-[(3S,4R)-4-({[(1s,4S)-4-cyclopropylcyclohexyl]oxy}methyl)-7-methyl-6-oxo-1,3,4,6-tetrahydro-2H-quinolizin-3-yl]methanesulfonamide]: the “Wakefulness time (% of vehicle treatment) (Mean, n = 2)” value in the assay on SD rats (1 mg/kg) was 126.37 % of vehicle treatment. The “OX2R agonist activity (3 μM, %)” value in assay [1] amounted to 98%.
`CC#CC1CCC(OCC2C(NS(=O)(=O)CC)CCc3ccc(C)c(=O)n32)CC1` [Example 147, rel-N-[(3S,4R)-7-methyl-6-oxo-4-({[(1s,4S)-4-(prop-1-yn-1-yl)cyclohexyl]oxy}methyl)-1,3,4,6-tetrahydro-2H-quinolizin-3-yl]ethanesulfonamide]: the “Wakefulness time (% of vehicle treatment) (Mean, n = 2)” value with cynomolgus monkeys (1 mg/kg) is on record as 389.64 % of vehicle treatment. Moreover, in assay [1], the “OX2R agonist activity (3 μM, %)” value is recorded as 99%.
With `CCC1CCC(OCC2C(NS(C)(=O)=O)CCc3ccc(C)c(=O)n32)CC1` [Example 9, rel-N-[(3S,4R)-4-({[(1s,4S)-4-ethylcyclohexyl]oxy}methyl)-7-methyl-6-oxo-1,3,4,6-tetrahydro-2H-quinolizin-3-yl]methanesulfonamide], the “Wakefulness time (% of vehicle treatment) (Mean, n = 2)” value with cynomolgus monkeys (0.3 mg/kg) is 521.43 % of vehicle treatment. Further, the “OX2R agonist activity (3 μM, %)” value in assay [1] turned out to be 68%.
As to `Cc1ccc2n(c1=O)C(COC1CCC(C3CC3)CC1)C(NS(=O)(=O)C1CC1)CC2` [Example 113, rel-N-[(3S,4R)-4-({[(1s,4S)-4-cyclopropylcyclohexyl]oxy}methyl)-7-methyl-6-oxo-1,3,4,6-tetrahydro-2H-quinolizin-3-yl]cyclopropanesulfonamide], the “Wakefulness time (% of vehicle treatment) (Mean, n = 2)” value in the assay with cynomolgus monkeys (0.1 mg/kg) is on record as 380.66 % of vehicle treatment. Also, the “OX2R agonist activity (3 μM, %)” value in assay [1] came to 87%.

Source of the values: patent publication US12448377B2, “Heterocyclic compound” (Takeda Pharmaceutical Company Limited, priority 2019, dated 2025).
